Experimental findings from ChEMBL document CHEMBL3779870, “Differential metabolism of 3FDT and docetaxel in RLMs, rats, and HLMs” (Eur J Med Chem, 2016) are described below.

Data set [1] in a line: Drug metabolism in Sprague-Dawley rat feces assessed as metabolite M8 formation at 40 mg/kg, iv administered as single dose after 24 hrs by HPLC-TIC chromatography. The conditions noted are these: in vivo. It counts as ADME, organism-based.
For data set [2], the target named is Cytochrome P450 2D6 (Homo sapiens, UniProt P10635). Description: Drug metabolism assessed as recombinant human CYP2D6 mediated metabolite formation at 10 uM preincubated for 5 mins followed by addition of NADPH measured after 120 mins by HPLC-TIC chromatography. To be noted: recombinant enzyme, 2 h. It counts as ADME.
Data set [3] addresses Cytochrome P450 2E1 (Homo sapiens, UniProt P05181). The data set is described as follows: Drug metabolism assessed as recombinant human CYP2E1 mediated metabolite M4 formation at 10 uM preincubated for 5 mins followed by addition of NADPH measured after 120 mins by HPLC-TIC chromatography. It counts as ADME. The conditions noted are these: recombinant enzyme, 2 h.
Data set [4] is described as follows: Drug metabolism in Sprague-Dawley rat feces assessed as metabolite M6 formation at 40 mg/kg, iv administered as single dose after 24 hrs by HPLC-TIC chromatography. The conditions noted are these: in vivo. The format is ADME, organism-based.
Data set [5] concerns the target Cytochrome P450 3A4 (Homo sapiens, UniProt P08684). The data set is described as follows: Drug metabolism assessed as recombinant human CYP3A4 mediated metabolite M3 formation at 10 uM preincubated for 5 mins followed by addition of NADPH measured after 120 mins by HPLC-TIC chromatography. The format is ADME. To be noted: recombinant enzyme, 2 h.
The nature of data set [6]: Cytotoxicity against human SKOV3 cells. It counts as functional, cell-based. To be noted: SK-OV-3.
The nature of data set [7]: Apparent volume of distribution in Sprague-Dawley rat. To be noted: in vivo, read-out: Vd(app). The format is ADME, organism-based.
In data set [8] the target is T1, Cytochrome P450 2A6 (Homo sapiens, UniProt P11509).
T1 sequence (P11509 whole entry): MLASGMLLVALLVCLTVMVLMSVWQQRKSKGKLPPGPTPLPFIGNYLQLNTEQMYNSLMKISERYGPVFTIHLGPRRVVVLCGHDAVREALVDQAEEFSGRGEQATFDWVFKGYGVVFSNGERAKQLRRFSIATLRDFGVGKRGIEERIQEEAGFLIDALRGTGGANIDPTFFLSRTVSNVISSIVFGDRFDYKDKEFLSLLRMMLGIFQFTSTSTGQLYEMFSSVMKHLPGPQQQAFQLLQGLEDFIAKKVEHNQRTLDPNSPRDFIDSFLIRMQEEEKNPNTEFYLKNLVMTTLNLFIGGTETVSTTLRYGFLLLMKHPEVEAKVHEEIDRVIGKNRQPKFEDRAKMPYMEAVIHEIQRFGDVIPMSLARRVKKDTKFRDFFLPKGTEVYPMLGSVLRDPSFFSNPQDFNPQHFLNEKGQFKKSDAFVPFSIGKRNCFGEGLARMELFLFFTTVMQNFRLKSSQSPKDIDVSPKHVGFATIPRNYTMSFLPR
The data set is described as follows: Drug metabolism assessed as recombinant human CYP2A6 mediated metabolite formation at 10 uM preincubated for 5 mins followed by addition of NADPH measured after 120 mins by HPLC-TIC chromatography. It counts as ADME. To be noted: recombinant enzyme, 2 h.

A short description of data set [9]: AUC (0 to infinity) in Sprague-Dawley rat. The format is ADME, organism-based. Further details: time infinity. To be noted: in vivo.
The target of data set [10] is T2, Cytochrome P450 2B6 (Homo sapiens, UniProt P20813).
T2 sequence (P20813 whole entry): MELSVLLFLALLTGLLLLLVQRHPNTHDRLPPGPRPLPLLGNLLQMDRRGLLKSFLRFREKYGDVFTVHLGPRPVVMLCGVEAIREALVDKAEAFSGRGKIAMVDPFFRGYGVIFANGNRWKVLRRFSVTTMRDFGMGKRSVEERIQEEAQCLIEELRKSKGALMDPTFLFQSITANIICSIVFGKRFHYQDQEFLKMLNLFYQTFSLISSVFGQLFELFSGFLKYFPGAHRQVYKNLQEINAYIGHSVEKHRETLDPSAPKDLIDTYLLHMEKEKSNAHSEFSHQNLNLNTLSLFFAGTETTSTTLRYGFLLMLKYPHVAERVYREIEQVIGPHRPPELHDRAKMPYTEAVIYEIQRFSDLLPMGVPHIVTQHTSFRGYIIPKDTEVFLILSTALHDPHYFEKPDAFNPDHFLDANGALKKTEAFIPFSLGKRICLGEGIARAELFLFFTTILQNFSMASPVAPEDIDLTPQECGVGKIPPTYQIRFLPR
The data set is described as follows: Drug metabolism assessed as recombinant human CYP2B6 mediated metabolite formation at 10 uM preincubated for 5 mins followed by addition of NADPH measured after 120 mins by HPLC-TIC chromatography. It counts as ADME. To be noted: recombinant enzyme, 2 h.

Data set [11] in a line: Drug metabolism in Sprague-Dawley rat urine assessed as metabolite M1 formation at 40 mg/kg, iv administered as single dose after 24 hrs by HPLC-TIC chromatography. The format is ADME, organism-based. The conditions noted are these: in vivo.
A short description of data set [12]: Drug metabolism in Sprague-Dawley rat feces assessed as metabolite M2 formation at 40 mg/kg, iv administered as single dose after 24 hrs by HPLC-TIC chromatography. The conditions noted are these: in vivo. It counts as ADME, organism-based.
Data set [13] concerns Plasma. The data set is described as follows: Drug metabolism in Sprague-Dawley rat plasma assessed as metabolite M3 formation at 40 mg/kg, iv administered as single dose after 4 to 24 hrs by HPLC-TIC chromatography. It counts as ADME, organism-based. The conditions noted are these: in vivo.
Data set [14] has as its target Cytochrome P450 2C9 (Homo sapiens, UniProt P11712). Description: Drug metabolism assessed as recombinant human CYP2C9 mediated metabolite formation at 10 uM preincubated for 5 mins followed by addition of NADPH measured after 120 mins by HPLC-TIC chromatography. It counts as ADME. To be noted: recombinant enzyme, 2 h.
A short description of data set [15]: Drug metabolism in Sprague-Dawley rat feces assessed as metabolite M4 formation at 40 mg/kg, iv administered as single dose after 24 hrs by HPLC-TIC chromatography. The format is ADME, organism-based. To be noted: in vivo.
The test system of data set [16] is Plasma. The data set is described as follows: Drug metabolism in Sprague-Dawley rat plasma assessed as metabolite M1 formation at 40 mg/kg, iv administered as single dose after 4 to 24 hrs by HPLC-TIC chromatography. It counts as ADME, organism-based. To be noted: in vivo.
Data set [17] in a line: Drug metabolism in Sprague-Dawley rat feces assessed as metabolite M3 formation at 40 mg/kg, iv administered as single dose after 24 hrs by HPLC-TIC chromatography. The format is ADME, organism-based. To be noted: in vivo.

Chain of Cytochrome P450 2D6 (P10635 whole entry): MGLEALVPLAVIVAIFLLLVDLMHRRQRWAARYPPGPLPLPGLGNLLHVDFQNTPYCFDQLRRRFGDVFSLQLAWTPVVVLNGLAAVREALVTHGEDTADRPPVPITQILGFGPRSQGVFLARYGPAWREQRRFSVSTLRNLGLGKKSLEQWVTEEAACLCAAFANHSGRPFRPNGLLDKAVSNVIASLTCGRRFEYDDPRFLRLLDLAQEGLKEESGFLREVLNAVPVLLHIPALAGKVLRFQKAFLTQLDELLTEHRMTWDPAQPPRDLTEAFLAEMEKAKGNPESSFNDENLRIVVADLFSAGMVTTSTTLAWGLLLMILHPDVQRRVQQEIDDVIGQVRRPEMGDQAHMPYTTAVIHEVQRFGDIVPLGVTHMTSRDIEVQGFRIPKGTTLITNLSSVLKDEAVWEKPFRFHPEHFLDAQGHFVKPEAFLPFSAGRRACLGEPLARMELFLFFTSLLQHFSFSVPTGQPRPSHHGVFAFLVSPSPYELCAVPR
Chain of Cytochrome P450 3A4 (P08684 whole entry): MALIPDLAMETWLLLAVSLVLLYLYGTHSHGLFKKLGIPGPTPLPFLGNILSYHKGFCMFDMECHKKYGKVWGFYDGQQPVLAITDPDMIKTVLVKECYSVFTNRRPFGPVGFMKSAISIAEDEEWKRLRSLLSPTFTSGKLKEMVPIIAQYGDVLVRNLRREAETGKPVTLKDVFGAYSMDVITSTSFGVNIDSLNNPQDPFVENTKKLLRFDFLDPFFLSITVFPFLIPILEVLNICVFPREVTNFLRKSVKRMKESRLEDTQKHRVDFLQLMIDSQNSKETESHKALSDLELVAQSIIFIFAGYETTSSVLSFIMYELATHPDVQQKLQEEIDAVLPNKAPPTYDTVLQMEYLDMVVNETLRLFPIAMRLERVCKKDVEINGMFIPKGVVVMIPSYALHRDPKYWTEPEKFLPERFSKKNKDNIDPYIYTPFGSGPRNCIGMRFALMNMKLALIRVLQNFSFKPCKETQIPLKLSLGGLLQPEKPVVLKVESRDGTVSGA
Chain of Cytochrome P450 2C9 (P11712 whole entry): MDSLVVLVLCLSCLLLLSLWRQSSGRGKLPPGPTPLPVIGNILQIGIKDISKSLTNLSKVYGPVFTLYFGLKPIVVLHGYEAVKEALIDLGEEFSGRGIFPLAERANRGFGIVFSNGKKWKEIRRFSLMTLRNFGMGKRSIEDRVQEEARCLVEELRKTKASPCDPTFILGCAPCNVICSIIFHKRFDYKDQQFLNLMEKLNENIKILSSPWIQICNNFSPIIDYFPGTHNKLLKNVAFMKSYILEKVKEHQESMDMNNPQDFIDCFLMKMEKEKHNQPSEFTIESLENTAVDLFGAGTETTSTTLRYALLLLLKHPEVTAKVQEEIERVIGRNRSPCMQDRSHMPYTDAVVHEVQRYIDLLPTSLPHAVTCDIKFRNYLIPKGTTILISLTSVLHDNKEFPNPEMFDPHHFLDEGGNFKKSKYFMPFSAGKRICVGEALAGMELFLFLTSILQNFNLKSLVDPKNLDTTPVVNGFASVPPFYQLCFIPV
Chain of Cytochrome P450 2E1 (P05181 whole entry): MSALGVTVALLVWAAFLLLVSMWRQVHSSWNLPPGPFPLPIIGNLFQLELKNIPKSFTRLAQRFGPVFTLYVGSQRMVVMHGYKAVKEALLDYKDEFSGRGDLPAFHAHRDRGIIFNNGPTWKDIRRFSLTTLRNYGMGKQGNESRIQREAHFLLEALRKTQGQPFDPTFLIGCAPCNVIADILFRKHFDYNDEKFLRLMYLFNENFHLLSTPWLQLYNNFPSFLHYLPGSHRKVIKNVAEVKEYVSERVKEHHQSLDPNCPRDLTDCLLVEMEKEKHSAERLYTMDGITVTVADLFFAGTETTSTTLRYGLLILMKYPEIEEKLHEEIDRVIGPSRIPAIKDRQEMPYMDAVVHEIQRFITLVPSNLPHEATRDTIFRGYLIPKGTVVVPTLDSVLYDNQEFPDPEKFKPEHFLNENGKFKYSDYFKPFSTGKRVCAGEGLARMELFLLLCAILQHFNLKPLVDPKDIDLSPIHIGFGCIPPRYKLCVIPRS

Broadly, the IC50 is the concentration at which inhibition is half-maximal. A low value points to greater potency in that assay. A word on the AUC(0-inf): it is total exposure, with the tail of the curve extrapolated. `CC(=O)O[C@@]12CO[C@@H]1C[C@H](O)[C@@]1(C)C(=O)[C@H](O)C3=C(C)[C@@H](OC(=O)[C@H](O)[C@@H](NC(=O)OC(C)(C)C(F)(F)F)c4ccccc4)C[C@@](O)([C@@H](OC(=O)c4ccccc4)C12)C3(C)C` (some centres not stated): the Drug metabolism result is reported as “metabolite_detected” in data set [1]; “metabolite_notdetected” in data set [2]; “metabolite_detected” in [3]; “metabolite_detected” in data set [4]; “metabolite_detected” in data set [5]; “metabolite_notdetected” in [8]. Moreover, the Drug metabolism result in data set [10] is “metabolite_notdetected”; in data set [11] it was “metabolite_notdetected”; in [12] it was “metabolite_detected”; in [13], “metabolite_notdetected”; in [14] it was “metabolite_notdetected”; in data set [15] it was “metabolite_detected”. The figures for the Drug metabolism entry in data set [16] and in data set [17] were “metabolite_notdetected” and “metabolite_detected”, respectively. In data set [6], this compound showed an IC50 of 0.01 nM. Moreover, in data set [7], the Vd was found to be 18.1 L/kg. The AUC(0-inf) in data set [9] worked out at 3960 ng·h/mL.
